Assay results taken from the supplement of paper PMC10307832.

What was measured:
Assay in all cases: relative viability (nuclei count vs DMSO), 5 days (fraction); higher = more cells survive
[1] = system: NCI-H596
Procedure, shortened: (§1)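 Five library-drug doses in √10 steps were combined with a fixed anchor-drug dose, or a single drug was given alone, by pin tool to lung cancer cell lines in 1536-well plates the day after seeding. Nuclei were stained and counted after 5 days. Relative viability is the nuclei count in treated wells over that in vehicle wells, taken as the median of duplicate plates.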

[2] = system: NCI-H1755
Procedure, shortened: as §1

[3] = system: LK-2
Procedure, shortened: as §1

[4] = system: NCI-H441
Procedure, shortened: as §1

[5] = system: NCI-H520
Procedure, shortened: as §1

[6] = system: EMC-BAC-2
Procedure, shortened: as §1

[7] = system: A-427
Procedure, shortened: as §1

[8] = system: NCI-H23
Procedure, shortened: as §1

[9] = system: PC-3 [JPC-3]
Procedure, shortened: as §1

[10] = system: SK-MES-1
Procedure, shortened: as §1

[11] = system: EKVX
Procedure, shortened: as §1

[12] = system: H3255
Procedure, shortened: as §1

[13] = system: NCI-H1975
Procedure, shortened: as §1

[14] = system: LOU-NH91
Procedure, shortened: as §1

[15] = system: NCI-H1734
Procedure, shortened: as §1

[16] = system: NCI-H2170
Procedure, shortened: as §1

[17] = system: NCI-H1666
Procedure, shortened: as §1

[18] = system: HCC-366
Procedure, shortened: as §1

[19] = system: COR-L 105
Procedure, shortened: as §1

[20] = system: NCI-H1563
Procedure, shortened: as §1

`O=c1cc(-c2cccc3c2Sc2ccccc2S3)oc(N2CCOCC2)c1` + Cc1nc(NC(=O)N2CCC[C@H]2C(N)=O)sc1-c1ccnc(C(C)(C)C(F)(F)F)c1 [Alpelisib] (partner 2 µM) was tested, and the relative viability ([1]; first compound 0.08 µM) was 0.588, the relative viability ([1]; first compound 0.253 µM) was 0.55 and the relative viability ([1]; first compound 0.8 µM) was 0.5. The relative viability ([1]; first compound 2.53 µM) was 0.469, the relative viability ([1]; first compound 8 µM) was 0.594 and the relative viability ([2]; first compound 0.08 µM) was 0.889. It also gave a relative viability ([2]; first compound 0.253 µM) of 1.22, a relative viability ([2]; first compound 0.8 µM) of 0.945 and a relative viability ([2]; first compound 2.53 µM) of 0.925. For the same compound, the relative viability ([2]; first compound 8 µM) was 0.964, the relative viability ([3]; first compound 0.08 µM) was 1.22 and the relative viability ([3]; first compound 0.253 µM) was 1.11. It also gave a relative viability ([3]; first compound 0.8 µM) of 1.49, a relative viability ([3]; first compound 2.53 µM) of 0.995 and a relative viability ([3]; first compound 8 µM) of 1.75. It also gave a relative viability ([4]; first compound 0.08 µM) of 0.736, a relative viability ([4]; first compound 0.253 µM) of 0.933 and a relative viability ([4]; first compound 0.8 µM) of 1.2. It also gave a relative viability ([4]; first compound 2.53 µM) of 0.551, a relative viability ([4]; first compound 8 µM) of 0.691 and a relative viability ([5]; first compound 0.08 µM) of 0.874. For the same compound, the relative viability ([5]; first compound 0.253 µM) was 0.979, the relative viability ([5]; first compound 0.8 µM) was 1.09 and the relative viability ([5]; first compound 2.53 µM) was 1.03. It also gave a relative viability ([5]; first compound 8 µM) of 0.971, a relative viability ([6]; first compound 0.08 µM) of 0.755 and a relative viability ([6]; first compound 0.253 µM) of 0.799. The relative viability ([6]; first compound 0.8 µM) was 0.815, the relative viability ([6]; first compound 2.53 µM) was 0.71 and the relative viability ([6]; first compound 8 µM) was 0.856. It also gave a relative viability ([7]; first compound 0.08 µM) of 1.04, a relative viability ([7]; first compound 0.253 µM) of 1.04 and a relative viability ([7]; first compound 0.8 µM) of 1.14. For the same compound, the relative viability ([7]; first compound 2.53 µM) was 0.987, the relative viability ([7]; first compound 8 µM) was 1.05 and the relative viability ([8]; first compound 0.08 µM) was 0.562. It also gave a relative viability ([8]; first compound 0.253 µM) of 0.801, a relative viability ([8]; first compound 0.8 µM) of 0.752 and a relative viability ([8]; first compound 2.53 µM) of 0.603. The relative viability ([8]; first compound 8 µM) was 0.72, the relative viability ([9]; first compound 0.08 µM) was 0.994 and the relative viability ([9]; first compound 0.253 µM) was 1.04. For the same compound, the relative viability ([9]; first compound 0.8 µM) was 1.07, the relative viability ([9]; first compound 2.53 µM) was 0.958 and the relative viability ([9]; first compound 8 µM) was 1.03. For the same compound, the relative viability ([10]; first compound 0.08 µM) was 0.864, the relative viability ([10]; first compound 0.253 µM) was 1.09 and the relative viability ([10]; first compound 0.8 µM) was 0.993. For the same compound, the relative viability ([10]; first compound 2.53 µM) was 0.824, the relative viability ([10]; first compound 8 µM) was 0.845 and the relative viability ([11]; first compound 0.08 µM) was 1.05. The relative viability ([11]; first compound 0.253 µM) was 0.963, the relative viability ([11]; first compound 0.8 µM) was 0.805 and the relative viability ([11]; first compound 2.53 µM) was 1. It also gave a relative viability ([11]; first compound 8 µM) of 0.755, a relative viability ([12]; first compound 0.08 µM) of 0.631 and a relative viability ([12]; first compound 0.253 µM) of 0.755. For the same compound, the relative viability ([12]; first compound 0.8 µM) was 0.637, the relative viability ([12]; first compound 2.53 µM) was 0.653 and the relative viability ([12]; first compound 8 µM) was 0.797. For the same compound, the relative viability ([13]; first compound 0.08 µM) was 0.722, the relative viability ([13]; first compound 0.253 µM) was 0.786 and the relative viability ([13]; first compound 0.8 µM) was 0.656. It also gave a relative viability ([13]; first compound 2.53 µM) of 0.498, a relative viability ([13]; first compound 8 µM) of 0.452 and a relative viability ([14]; first compound 0.08 µM) of 0.724. It also gave a relative viability ([14]; first compound 0.253 µM) of 0.764, a relative viability ([14]; first compound 0.8 µM) of 0.632 and a relative viability ([14]; first compound 2.53 µM) of 0.593. It also gave a relative viability ([14]; first compound 8 µM) of 0.713, a relative viability ([15]; first compound 0.08 µM) of 0.595 and a relative viability ([15]; first compound 0.253 µM) of 0.841. It also gave a relative viability ([15]; first compound 0.8 µM) of 0.729, a relative viability ([15]; first compound 2.53 µM) of 0.662 and a relative viability ([15]; first compound 8 µM) of 0.706. For the same compound, the relative viability ([16]; first compound 0.08 µM) was 0.791, the relative viability ([16]; first compound 0.253 µM) was 0.835 and the relative viability ([16]; first compound 0.8 µM) was 0.933. The relative viability ([16]; first compound 2.53 µM) was 0.747, the relative viability ([16]; first compound 8 µM) was 0.841 and the relative viability ([17]; first compound 0.08 µM) was 0.789. It also gave a relative viability ([17]; first compound 0.253 µM) of 1.13, a relative viability ([17]; first compound 0.8 µM) of 0.82 and a relative viability ([17]; first compound 2.53 µM) of 0.854. The relative viability ([17]; first compound 8 µM) was 0.681, the relative viability ([18]; first compound 0.08 µM) was 0.345 and the relative viability ([18]; first compound 0.253 µM) was 0.547. The relative viability ([18]; first compound 0.8 µM) was 0.269, the relative viability ([18]; first compound 2.53 µM) was 0.312 and the relative viability ([18]; first compound 8 µM) was 0.318. The relative viability ([19]; first compound 0.08 µM) was 1.1, the relative viability ([19]; first compound 0.253 µM) was 1.13 and the relative viability ([19]; first compound 0.8 µM) was 0.862. The relative viability ([19]; first compound 2.53 µM) was 0.902, the relative viability ([19]; first compound 8 µM) was 1.12 and the relative viability ([20]; first compound 0.08 µM) was 0.917. The relative viability ([20]; first compound 0.253 µM) was 1.04, the relative viability ([20]; first compound 0.8 µM) was 0.853 and the relative viability ([20]; first compound 2.53 µM) was 0.848. It also gave a relative viability ([20]; first compound 8 µM) of 0.822.
